From patent US20110076377A1, “ETHOID COMPOUNDS FOR USE AS FOOD ADDITIVES” (UNIVERSITY OF VIRGINIA PATENT FOUNDATION, priority 2007, published 2011)
Residues, ends and D or L forms follow the SMILES beside them.

Assays:
taste-test volunteers = experiment: Blind taste test of sweetening potency of aqueous solutions; format: in vivo; conditions: aqueous solutions at 1 mg/ml and 5 mg/ml, six volunteers
Experimental: The sweetening potency of Compounds 1 and 2 was established by conducting blind taste tests of aqueous solutions of each of Compound 1 and 2 compared to aqueous solutions of each of sucrose and aspartame at concentrations of both 1 mg/ml and 5 mg/ml. […] Furthermore, Compound 1, the ethoid version of aspartame, was reported to be approximately 5 to 10 times sweeter than aspartame by the taste-test volunteers.

[1] = reported, background; cited from earlier work
[2] = Solution stability of methyleneoxy ethoid of neotame relative to neotame; format: physicochemical; conditions: FIG. 5B, 60° C., PBS pH 7.5, hydrolysis of methyl ester
Experimental: FIGS. 5A and 5B illustrate the temperature stability of an exemplary ethoid of neotame compared to neotame itself. […] FIG. 5B provides a comparison of the rate of degradation of the methyleneoxy ethoid of neotame versus neotame over time at 60° C. in a solution of phosphate buffered saline at pH 7.5. Specifically, FIG. 5B is a plot of the natural logarithm of the concentration of (neotame/neotame ethoid) over time. The decomposition reaction proceeds via hydrolysis of the methyl ester to the corresponding di-carboxylic acid.
The solution stability of Compound 3 at various temperatures was examined and compared to that of neotame.
The major route leading to loss of neotame is hydrolysis of the methyl ester group as shown above. […] The rates of degradation of neotame and the methyleneoxy ethoid of neotame were examined and compared. […] FIG. 5B is a plot comparing the rate of degradation of neotame to that of the corresponding ethoid.

[3] = Comparative stability of aspartame and aspartame ethoid in PBS solution (HPLC-MS); format: physicochemical; conditions: for half-life: 65° C., PBS pH 7.5; for Cyclized product (%) / SM (%): AUC at 214 nm; for degradation at the 12 hour time point: FIG. 1, PBS pH 7.5, 65° C.
Experimental: Solutions of Aspartame and Compound 1 were prepared by dissolving 10 mg of the subject dipeptide in 4 ml of PBS, pH=7.5. […] Aliquots (50 μl) were withdrawn at the following times: 0, 24 h, 36 h, 48 h and 60 h, and diluted with 125 μl of methanol/acetonitrile/0.1% TFA.
The samples were analyzed by HPLC-MS, using a Gilson HPLC with dual wavelengths UV detector (214 and 254 nm). The following conditions were employed: column: C18; 4.6×250 mm; 5 μmx 6A; solvent system: H2O-1% TFA/Acetonitrile-1% TFA, 1 ml/min, with a gradient of 10% organic phase to 100% organic phase in 10 minutes, followed by a 10 minute hold at 100% of organic phase. As shown in the reaction schemes above, decomposition proceeds mainly via a cyclization reaction to form the corresponding cyclized product and methanol.
The AUC (at 214 nm) values corresponding to the dipeptide and corresponding cyclized products (aspartame→diketopiperazine and aspartame ethoid→ketooxazine) are summarized in the following Table.
See, e.g., FIG. 1, which provides plots of the logarithm of percent of intact dipeptide remaining over time, in hours, for both aspartame and the methyleneoxy ethoid of aspartame. […] The rate of degradation of the methyleneoxy ethoid of aspartame is time, temperature, and pH dependent.

Row | SMILES | sweetness compared to sucrose solution (taste-test volunteers) | sweetness relative to sugar [1] | half-life [3] [days] | Cyclized product (%) ([3]; PBS pH 7.5, 40° C., time 0 h) | SM (%) ([3]; PBS pH 7.5, 40° C., time 0 h) | Cyclized product (%) ([3]; PBS pH 7.5, 40° C., time 24 h) | SM (%) ([3]; PBS pH 7.5, 40° C., time 24 h) | Cyclized product (%) ([3]; PBS pH 7.5, 40° C., time 36 h) | SM (%) ([3]; PBS pH 7.5, 40° C., time 36 h) | Cyclized product (%) ([3]; PBS pH 7.5, 40° C., time 48 h) | SM (%) ([3]; PBS pH 7.5, 40° C., time 48 h) | Cyclized product (%) ([3]; PBS pH 7.5, 40° C., time 60 h) | SM (%) ([3]; PBS pH 7.5, 40° C., time 60 h) | degradation at the 12 hour time point [3] | also measured
1 | CC(=O)NC(COC(CCCCN)C(=O)O)Cc1ccccc1 (centres unmarked) [Compound 2, N—Ac-Phe-CH2—O-Lys] | significantly sweeter than sugar |  |  |  |  |  |  |  |  |  |  |  |  |  | 
2 | O=C1NS(=O)(=O)c2ccccc21 [saccharin] |  | 300-450 times |  |  |  |  |  |  |  |  |  |  |  |  | 
3 | COC(=O)C(Cc1ccccc1)OCC(CC(=O)O)NCCC(C)(C)C (centres unmarked) [Compound 3] |  |  |  |  |  |  |  |  |  |  |  |  |  |  | rate of degradation compared to neotame [2]: nearly identical
4 | COC(=O)C(Cc1ccccc1)OCC(N)CC(=O)O (centres unmarked) [Compound 1, asp-CH2—O-phe] | significantly sweeter than sugar |  | 12.7 | 0 | 100 | 0 | 100 | 0 | 100 | 0 | 100 | 0 | 100 | negligible | sweetness relative to aspartame (taste-test volunteers): several-fold sweeter; phenylalanine formation upon degradation [3]: does not form phenylalanine; diketopiperazine formation upon degradation ([3]; Example 4): no diketopiperazine (dkkp) formation; degradation in solution at 40° C. ([3]; PBS pH 7.5, 40° C., up to 60 h): essentially no degradation was observed; improvement of stability over aspartame ([3]; half lives at 65° C., ethoid versus aspartame): over a hundred-fold
5 | COC(=O)[C@H](Cc1ccccc1)NC(=O)[C@@H](N)CC(=O)O [Aspartame, L-aspartyl-L-phenylalanine methyl ester, reference compound] (H-Asp-Phe-OMe) |  | approximately 150 times | 0.104 | 0 | 100 | 95 | 5 | 100 | 0 | 100 | 0 | 100 | 0 | essentially complete | sweetness relative to an equivalent amount of sugar [1]: 150 fold
